From patent publication US20250382631A1, “PROTAC-CID SYSTEMS FOR USE IN MULTIPLEX GENE REGULATION” (William Marsh Rice University, priority 2022, published 2025)
Like-named read-outs stand apart in the source and are kept apart here.

What was measured:
[1] = system: pUAS-1-driven EYFP expression in HEK293T cells transfected with GAL4- and VPR-fused PROTAC target protein / E3 ubiquitin ligase; experiment: PROTAC-CID inducible EYFP gene activation, flow cytometry; format: cell-based, human; conditions: for Bottom (best-fit value) / Span (best-fit value) / Top (best-fit value): Table 4 nonlinear regression of EYFP activation; for Bottom (best-fit value) / Span (best-fit value) / Top (best-fit value) / Hillslope (best-fit value) / logEC50 (best-fit value) / EC50: FIG. 13A
Method in brief: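 HEK293T cells PEI-transfected with plasmids (60 ng each unless noted), medium changed at 12 h, then inducer small molecules in DMSO added. Viable single cells analysed by flow cytometry; EYFP mean intensity normalised to BFP, and fold change taken versus control group.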

[2] = system: endogenous BRD4 (BRD4S, BRD4L); experiment: Immunoblot of endogenous BRD4 in HEK293T cells; format: cell-based, human; conditions: MZ1 20 nM and 100 nM, 48 h, HEK293T with MZ1 PROTAC-CID, FIG. 22
Text: Immunoblots and RT-qPCR. Mice liver tissues or culture cells were lysed in RIPA buffer (Abcam no. ab156034) supplemented with phosphatase inhibitor (Thermo Fisher Scientific no. PIA32957) and protease inhibitors (Fishers cientific no. A32965). Lysates were resolved by 10% Tris-glycine SDS-PAGE, transferred to PVDF membrane (Bio-Rad no. 1620177), and blotted with antibodies BRD4 (Abcam, ab128874), GAPDH (Cell Signaling Technology, 2118L), luciferase (ABclonal, requested), Ran (ABclonal, A0976), Hsp90 (Cell Signaling Technology, 4874). Images were acquired using LumiQuant AC600 (Acuronbio Technology Inc), quantification analysis was processed by ImageJ software. Trizol reagent (Sigma no. T9424) was used to extract total RNA from liver. RNAs were purified using RNeasy Mini kit (QIAGEN no. 4106). The quality and concentration of total RNA were checked on NanoDrop™ 2000/2000c Spectrophotometers (Thermo Fisher Scientific no. ND2000LAPTOP). Reverse transcription of total RNA was performed using a Applied Biosystems™ High-Capacity cDNA Reverse Transcription Kit (Thermo Fisher Scientific no. 4368813) and qPCR was conducted with SYBR Green Master Mix (Abclonal no. RK21203) on QuantStudio 6 Real-time PCR system (Thermo Fisher Scientific).

[3] = Table 4 nonlinear regression, Prism 9 [Agonist] vs. response variable slope (four parameters), no unit in table (the source gives nM), read-out: EC50 (best-fit value)
[4] = dose-response, read-out: EC50 for gene activation

| SMILES | Bottom (best-fit value) [1] | Span (best-fit value) [1] | Top (best-fit value) [1] | Hillslope (best-fit value) ([1]; Table 4 nonlinear regression) | logEC50 (best-fit value) ([1]; Table 4 nonlinear regression) | EC50 [1, 3] | EC50 [1, 4] | grades of EYFP intensity ([1]; HEK293T transfected with GAL4-VHL, TRIM24^BD-VPR, BRD4^BD2-VPR and reporter plasmid, FIG. 2E: dTRIM24, MZ1 100 nM) | degradation of endogenous BRD4 isoforms [2] |
| --- | --- | --- | --- | --- | --- | --- | --- | --- | --- |
| CC[C@H](C(=O)N1CCCC[C@H]1C(=O)O[C@H](CCc1ccc(OC)c(OC)c1)c1ccccc1OCC(=O)NCCCCCCOc1cccc2c1C(=O)N(C1CCC(=O)NC1=O)C2=O)c1cc(OC)c(OC)c(OC)c1 (stereo partly shown) [dTAG-13] | 2.581 | 135.7 | 138.3 | 3.384 | 1.724 | 53 nM | 53 nM |  |  |
| Cc1ncsc1-c1ccc(CNC(=O)[C@@H]2C[C@@H](O)CN2C(=O)[C@@H](NC(=O)COCCOCCOCCNC(=O)C[C@@H]2N=C(c3ccc(Cl)cc3)c3c(sc(C)c3C)-n3c(C)nnc32)C(C)(C)C)cc1 [MZ1] | 1.416 | 319.6 | 321 | 1.728 | 1.51 | 32.4 nM | 32 nM | 13 fold | only observed the degradation of the short isoform of BRD4 (BRD4S), not the conventional long isoform BRD4 (BRD4L) |
